Measured values published in PubChem BioAssay AID2060502 (Molecular Pharmacology Branch, DTP, NCI, 2025).

System: 885724-159-R-J1-PDC complex spheroid viability
Experiment: Anticancer human tumor 885724-159-R-J1-PDC patient-derived pancreatic adenocarcinoma cell line growth inhibition [GQUAD]
Conditions: for IC50: curve of first compound; for viability, T/C: stronger effect = lower value
Procedure, shortened: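 Tumor cells were grown as complex spheroids with HUVEC endothelial cells and mesenchymal stem cells as stroma. G-quadruplex stabilizers were combined with targeted agents over half-log dilutions from near the clinical Cmax, or from 10 microM.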

[1] = second compound 0.0316 µM, first compound 0.0316 µM
[2] = second compound 0.0316 µM, first compound 0.316 µM
[3] = second compound 0.1 µM, first compound 0.0316 µM
[4] = second compound 0.1 µM, first compound 0.316 µM
[5] = second compound 0.316 µM, first compound 0.0316 µM
[6] = second compound 0.316 µM, first compound 0.316 µM
[7] = second compound 1 µM, first compound 0.0316 µM
[8] = second compound 1 µM, first compound 0.316 µM
[9] = second compound 3.16 µM, first compound 0.0316 µM
[10] = second compound 3.16 µM, first compound 0.316 µM
[11] = second compound 10 µM, first compound 0.0316 µM
[12] = second compound 10 µM, first compound 0.316 µM
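Note: spheroids exposed to agents for seven days before readout.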
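Throughout, for viability, T/C: percent of vehicle control viability where 100% = DMSO wells.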

CC[C@@]1(O)C(=O)OCc2c1cc1n(c2=O)Cc2cc3c(CN(C)C)c(O)ccc3nc2-1 + Cc1[nH]c2ccc(F)cc2c1-c1nc2c3cccnc3c3ncccc3c2[nH]1
IC50 (second compound 0.0316 µM): > 316 nM | IC50 (second compound 0.1 µM): > 316 nM | IC50 (second compound 0.316 µM): > 316 nM | IC50 (second compound 1 µM): > 316 nM | IC50 (second compound 3.16 µM): < 0.999 nM | IC50 (second compound 10 µM): > 316 nM | viability, T/C (second compound 0.0316 µM, first compound 0.000999 µM): 90.3% | viability, T/C (second compound 0.0316 µM, first compound 0.00316 µM): 114% | viability, T/C (second compound 0.0316 µM, first compound 0.00999 µM): 98.9% | viability, T/C [1]: 97.6% | viability, T/C (second compound 0.0316 µM, first compound 0.0999 µM): 84.2% | viability, T/C [2]: 68.7% | viability, T/C (second compound 0.1 µM, first compound 0.000999 µM): 98.9% | viability, T/C (second compound 0.1 µM, first compound 0.00316 µM): 104% | viability, T/C (second compound 0.1 µM, first compound 0.00999 µM): 98% | viability, T/C [3]: 93.6% | viability, T/C (second compound 0.1 µM, first compound 0.0999 µM): 87.8% | viability, T/C [4]: 74.6% | viability, T/C (second compound 0.316 µM, first compound 0.000999 µM): 85.5% | viability, T/C (second compound 0.316 µM, first compound 0.00316 µM): 83.9% | viability, T/C (second compound 0.316 µM, first compound 0.00999 µM): 96.7% | viability, T/C [5]: 78.2% | viability, T/C (second compound 0.316 µM, first compound 0.0999 µM): 80.8% | viability, T/C [6]: 69.2% | viability, T/C (second compound 1 µM, first compound 0.000999 µM): 80.8% | viability, T/C (second compound 1 µM, first compound 0.00316 µM): 75.7% | viability, T/C (second compound 1 µM, first compound 0.00999 µM): 67.7% | viability, T/C [7]: 75.5% | viability, T/C (second compound 1 µM, first compound 0.0999 µM): 67% | viability, T/C [8]: 60.5% | viability, T/C (second compound 3.16 µM, first compound 0.000999 µM): 42.8% | viability, T/C (second compound 3.16 µM, first compound 0.00316 µM): 30.9% | viability, T/C (second compound 3.16 µM, first compound 0.00999 µM): 35.1% | viability, T/C [9]: 34.2% | viability, T/C (second compound 3.16 µM, first compound 0.0999 µM): 33.3% | viability, T/C [10]: 23.6% | viability, T/C (second compound 10 µM, first compound 0.000999 µM): 64.1% | viability, T/C (second compound 10 µM, first compound 0.00316 µM): 72.6% | viability, T/C (second compound 10 µM, first compound 0.00999 µM): 70.2% | viability, T/C [11]: 68.3% | viability, T/C (second compound 10 µM, first compound 0.0999 µM): 63.4% | viability, T/C [12]: 49.1%

O=C(c1cc(Cc2n[nH]c(=O)c3ccccc23)ccc1F)N1CCN(C(=O)C2CC2)CC1 + Cc1[nH]c2ccc(F)cc2c1-c1nc2c3cccnc3c3ncccc3c2[nH]1
IC50 (second compound 0.0316 µM): > 10000 nM | IC50 (second compound 0.1 µM): > 10000 nM | IC50 (second compound 0.316 µM): > 10000 nM | IC50 (second compound 1 µM): > 10000 nM | IC50 (second compound 3.16 µM): < 31.6 nM | IC50 (second compound 10 µM): > 10000 nM | viability, T/C [1]: 99.1% | viability, T/C (second compound 0.0316 µM, first compound 0.1 µM): 94.3% | viability, T/C [2]: 103% | viability, T/C (second compound 0.0316 µM, first compound 1 µM): 84.5% | viability, T/C (second compound 0.0316 µM, first compound 3.16 µM): 89.2% | viability, T/C (second compound 0.0316 µM, first compound 10 µM): 87.9% | viability, T/C [3]: 102% | viability, T/C (second compound 0.1 µM, first compound 0.1 µM): 111% | viability, T/C [4]: 92.2% | viability, T/C (second compound 0.1 µM, first compound 1 µM): 92.6% | viability, T/C (second compound 0.1 µM, first compound 3.16 µM): 103% | viability, T/C (second compound 0.1 µM, first compound 10 µM): 78.1% | viability, T/C [5]: 85.5% | viability, T/C (second compound 0.316 µM, first compound 0.1 µM): 88.7% | viability, T/C [6]: 90.3% | viability, T/C (second compound 0.316 µM, first compound 1 µM): 79.1% | viability, T/C (second compound 0.316 µM, first compound 3.16 µM): 96.2% | viability, T/C (second compound 0.316 µM, first compound 10 µM): 72.9% | viability, T/C [7]: 71.1% | viability, T/C (second compound 1 µM, first compound 0.1 µM): 71.1% | viability, T/C [8]: 77.2% | viability, T/C (second compound 1 µM, first compound 1 µM): 65.3% | viability, T/C (second compound 1 µM, first compound 3.16 µM): 76.8% | viability, T/C (second compound 1 µM, first compound 10 µM): 65.6% | viability, T/C [9]: 41.3% | viability, T/C (second compound 3.16 µM, first compound 0.1 µM): 39.9% | viability, T/C [10]: 56.6% | viability, T/C (second compound 3.16 µM, first compound 1 µM): 34.7% | viability, T/C (second compound 3.16 µM, first compound 3.16 µM): 49.8% | viability, T/C (second compound 3.16 µM, first compound 10 µM): 45.5% | viability, T/C [11]: 64.7% | viability, T/C (second compound 10 µM, first compound 0.1 µM): 70.5% | viability, T/C [12]: 76.8% | viability, T/C (second compound 10 µM, first compound 1 µM): 72.3% | viability, T/C (second compound 10 µM, first compound 3.16 µM): 70.6% | viability, T/C (second compound 10 µM, first compound 10 µM): 63.3%
